Data as given in patent US9944602B2, “Piperidinone herbicides” (E. I. DU PONT DE NEMOURS AND COMPANY, priority 2014, dated 2018).

What was measured:
Format in all cases: in vivo
[1] = system: barnyardgrass (Echinochloa crus-galli); assay: Test B flooded paddy test barnyardgrass; conditions: Table B, Flood, scale 0 to 100
Method: (§1) Plant species in the flooded paddy test selected from rice (Oryza sativa), sedge, umbrella (small-flower umbrella sedge, Cyperus difformis), ducksalad (Heteranthera limosa), and barnyardgrass (Echinochloa crus-galli) were grown to the 2-leaf stage for testing. At the time of treatment, test pots were flooded to 3 cm above the soil surface, treated by application of test compounds directly to the paddy water, and then maintained at that water depth for the duration of the test. Treated plants and controls were maintained in a greenhouse for 13 to 15 d, after which time all species were compared to controls and visually evaluated. […] A dash (-) response means no test result.

rice (Oryza sativa) = assay: Test B flooded paddy test rice; conditions: Table B, Flood, scale 0 to 100
Method: as §1

[2] = system: pigweed (Amaranthus retroflexus); assay: Test A postemergence pigweed; conditions: 0 to 100 scale, 0 is no effect, 100 is complete control
Description: (§2) Seeds of plant species selected from barnyardgrass (Echinochloa crus-galli), kochia (Kochia scoparia), ragweed (common ragweed, Ambrosia elatior), ryegrass, Italian (Italian ryegrass, Lolium multiflorum), crabgrass, large (large crabgrass, Digitaria sanguinalis), foxtail, giant (giant foxtail, Setaria faberii), morningglory (Ipomoea spp.), pigweed (Amaranthus retroflexus), velvetleaf (Abutilon theophrasti), wheat (Triticum aestivum), and corn (Zea mays) were planted into a blend of loam soil and sand and treated preemergence with a directed soil spray using test chemicals formulated in a non-phytotoxic solvent mixture which included a surfactant.
(§3) At the same time, plants selected from these crop and weed species and also blackgrass (Alopecurus myosuroides), and galium (catchweed bedstraw, Galium aparine) were planted in pots containing the same blend of loam soil and sand and treated with postemergence applications of test chemicals formulated in the same manner. Plants ranged in height from 2 to 10 cm and were in the one- to two-leaf stage for the postemergence treatment. Treated plants and untreated controls were maintained in a greenhouse for approximately 10 d, after which time all treated plants were compared to untreated controls and visually evaluated for injury. Plant response ratings, summarized in Table A, are based on a 0 to 100 scale where 0 is no effect and 100 is complete control. A dash (-) response means no test result.

[3] = system: barnyardgrass (Echinochloa crus-galli); assay: Test A postemergence barnyardgrass; conditions: 0 to 100 scale, 0 is no effect, 100 is complete control
Description: as §2, §3

[4] = system: ragweed (common ragweed, Ambrosia elatior); assay: Test A postemergence ragweed; conditions: 0 to 100 scale, 0 is no effect, 100 is complete control
Description: as §2, §3

[5] = system: foxtail, giant (giant foxtail, Setaria faberii); assay: Test A preemergence foxtail, giant; conditions: 0 to 100 scale, 0 no effect, 100 complete control
Description: as §2, §3

[6] = system: ryegrass, Italian (Italian ryegrass, Lolium multiflorum); assay: Test A postemergence ryegrass, Italian; conditions: 0 to 100 scale, 0 is no effect, 100 is complete control
Description: as §2, §3

[7] = system: pigweed (Amaranthus retroflexus); assay: Test A preemergence pigweed; conditions: 0 to 100 scale, 0 no effect, 100 complete control
Description: as §2, §3

kochia (Kochia scoparia) [8] = assay: Test A postemergence kochia; conditions: 0 to 100 scale, 0 is no effect, 100 is complete control
Description: as §2, §3

[9] = system: sedge, umbrella (small-flower umbrella sedge, Cyperus difformis); assay: Test B flooded paddy test sedge, umbrella; conditions: Table B, Flood, scale 0 to 100
Method: as §1

[10] = system: foxtail, giant (giant foxtail, Setaria faberii); assay: Test A postemergence foxtail, giant; conditions: 0 to 100 scale, 0 is no effect, 100 is complete control
Description: as §2, §3

[11] = system: barnyardgrass (Echinochloa crus-galli); assay: Test A preemergence barnyardgrass; conditions: 0 to 100 scale, 0 no effect, 100 complete control
Description: as §2, §3

kochia (Kochia scoparia) [12] = assay: Test A preemergence kochia; conditions: 0 to 100 scale, 0 no effect, 100 complete control
Description: as §2, §3

[13] = system: blackgrass (Alopecurus myosuroides); assay: Test A postemergence blackgrass; conditions: 0 to 100 scale, 0 is no effect, 100 is complete control
Description: as §2, §3

[14] = system: ducksalad (Heteranthera limosa); assay: Test B flooded paddy test ducksalad; conditions: Table B, Flood, scale 0 to 100
Method: as §1

[15] = system: wheat (Triticum aestivum); assay: Test A postemergence wheat; conditions: 0 to 100 scale, 0 is no effect, 100 is complete control
Description: as §2, §3

[16] = system: ragweed (common ragweed, Ambrosia elatior); assay: Test A preemergence ragweed; conditions: 0 to 100 scale, 0 no effect, 100 complete control
Description: as §2, §3

corn (Zea mays) = assay: Test A postemergence corn; conditions: 0 to 100 scale, 0 is no effect, 100 is complete control
Description: as §2, §3

[17] = system: galium (catchweed bedstraw, Galium aparine); assay: Test A postemergence galium; conditions: 0 to 100 scale, 0 is no effect, 100 is complete control
Description: as §2, §3

[18] = system: ryegrass, Italian (Italian ryegrass, Lolium multiflorum); assay: Test A preemergence ryegrass, Italian; conditions: 0 to 100 scale, 0 no effect, 100 complete control
Description: as §2, §3

SMILES	Plant response rating, Pigweed ([2]; 125 g ai/ha)	Plant response rating, Pigweed ([2]; 500 g ai/ha)	Plant response rating, Barnyardgrass ([3]; 125 g ai/ha)	Plant response rating, Barnyardgrass ([3]; 500 g ai/ha)	Plant response rating, Ragweed ([4]; 125 g ai/ha)	Plant response rating, Ragweed ([4]; 500 g ai/ha)	Foxtail, Giant plant response rating ([5]; 125 g ai/ha)	Foxtail, Giant plant response rating ([5]; 500 g ai/ha)	Plant response rating, Ryegrass, Italian ([6]; 125 g ai/ha)	Plant response rating, Ryegrass, Italian ([6]; 500 g ai/ha)	Pigweed plant response rating ([7]; 125 g ai/ha)	Pigweed plant response rating ([7]; 500 g ai/ha)	Plant response rating, Kochia (kochia (Kochia scoparia) [8]; 125 g ai/ha)	Plant response rating, Kochia (kochia (Kochia scoparia) [8]; 500 g ai/ha)	Plant response rating, Foxtail, Giant ([10]; 125 g ai/ha)	Plant response rating, Foxtail, Giant ([10]; 500 g ai/ha)	Barnyardgrass plant response rating ([11]; 125 g ai/ha)	Barnyardgrass plant response rating ([11]; 500 g ai/ha)	Kochia plant response rating (kochia (Kochia scoparia) [12]; 125 g ai/ha)	Kochia plant response rating (kochia (Kochia scoparia) [12]; 500 g ai/ha)	further results
O=C1NCCC(c2cccc(Cl)c2)C1C(=O)Nc1ccccc1C(F)(F)F (racemic) [Compound 33]	0	0	60	90	0	0	70	90	0	0	0	0	0	0	50	90	50	90	0	30	Plant response rating ([1]; 500 g ai/ha): 20; Plant response rating (rice (Oryza sativa); 500 g ai/ha): 0; Plant response rating ([9]; 500 g ai/ha): 0; Plant response rating, Blackgrass ([13]; 125 g ai/ha): 0; Plant response rating, Blackgrass ([13]; 500 g ai/ha): 0; Plant response rating ([14]; 500 g ai/ha): 80; Plant response rating, Wheat ([15]; 125 g ai/ha): 0; Plant response rating, Wheat ([15]; 500 g ai/ha): 0; Ragweed plant response rating ([16]; 125 g ai/ha): 0; Ragweed plant response rating ([16]; 500 g ai/ha): 0; Plant response rating, Corn (corn (Zea mays); 125 g ai/ha): 0; Plant response rating, Corn (corn (Zea mays); 500 g ai/ha): 0; Plant response rating, Galium ([17]; 125 g ai/ha): 0; Plant response rating, Galium ([17]; 500 g ai/ha): 0; Ryegrass, Italian plant response rating ([18]; 125 g ai/ha): 0; Ryegrass, Italian plant response rating ([18]; 500 g ai/ha): 0
O=C1NCCC(c2cccc(Cl)c2)C1C(=O)Nc1ccccc1F (racemic) [Compound 34]	0	0	40	90	0	0	50	90	0	0	0	30	0	0	40	80	40	90	0	30	Plant response rating ([1]; 500 g ai/ha): 0; Plant response rating (rice (Oryza sativa); 500 g ai/ha): 0; Plant response rating ([9]; 500 g ai/ha): 0; Plant response rating, Blackgrass ([13]; 125 g ai/ha): 0; Plant response rating, Blackgrass ([13]; 500 g ai/ha): 0; Plant response rating ([14]; 500 g ai/ha): 40; Plant response rating, Wheat ([15]; 125 g ai/ha): 0; Plant response rating, Wheat ([15]; 500 g ai/ha): 0; Ragweed plant response rating ([16]; 125 g ai/ha): 0; Ragweed plant response rating ([16]; 500 g ai/ha): 30; Plant response rating, Corn (corn (Zea mays); 125 g ai/ha): 0; Plant response rating, Corn (corn (Zea mays); 500 g ai/ha): 0; Plant response rating, Galium ([17]; 125 g ai/ha): 0; Plant response rating, Galium ([17]; 500 g ai/ha): 0; Ryegrass, Italian plant response rating ([18]; 125 g ai/ha): 0; Ryegrass, Italian plant response rating ([18]; 500 g ai/ha): 0
O=C1NCCC(c2cccc(OC(F)(F)F)c2)C1C(=O)Nc1ccccc1F (racemic) [Compound 37]	0	0	60	80	0	0	70	90	0	20	0	0	0	0	20	70	40	70	0	0	Plant response rating ([1]; 250 g ai/ha): 35; Plant response rating (rice (Oryza sativa); 250 g ai/ha): 0; Plant response rating ([9]; 250 g ai/ha): 0; Plant response rating, Blackgrass ([13]; 125 g ai/ha): 0; Plant response rating, Blackgrass ([13]; 500 g ai/ha): 0; Plant response rating ([14]; 250 g ai/ha): 90; Plant response rating, Wheat ([15]; 125 g ai/ha): 0; Plant response rating, Wheat ([15]; 500 g ai/ha): 0; Ragweed plant response rating ([16]; 125 g ai/ha): 0; Ragweed plant response rating ([16]; 500 g ai/ha): 0; Plant response rating, Corn (corn (Zea mays); 125 g ai/ha): 0; Plant response rating, Corn (corn (Zea mays); 500 g ai/ha): 0; Plant response rating, Galium ([17]; 125 g ai/ha): 0; Plant response rating, Galium ([17]; 500 g ai/ha): 0; Ryegrass, Italian plant response rating ([18]; 125 g ai/ha): 0; Ryegrass, Italian plant response rating ([18]; 500 g ai/ha): 0
